From patent US20260284074A1, “ENT1 Inhibitors in Combination with Checkpoint Inhibitors” (iTeos Belgium SA, priority 2023, published 2026) come the findings set out here.

The test system of one assay is MDA-MB-231 cells. Kind of assay: MDA-MB-231 subcutaneous tumor model in humanized NCG mice. The format is in vivo, mouse. To be noted: day 51; Compound 1 30 mg/kg i.p. twice a day; nivolumab 10 mg/kg i.p. every 5 days. As to the method: The anti-tumor therapeutic efficacy of Compound 1 monotherapy, nivolumab monotherapy, and Compound 1-nivolumab combination therapy was assessed in ‘humanized’ mice with subcutaneous tumors resulting from the subcutaneous injection of MDA-MB-231 cells, a human triple-negative breast cancer cell line.
Human cell line xenograft experiments were performed at Transcure (France) and all associated animal procedures were reviewed and approved by the local ethics committee. The experiment was carried out with the NOD-Prkdc^em26cd52Il2rg^em26cd22/NjuCrl immunodeficient mouse strain (NCG from Charles River Laboratories, Wilmington, MA, USA). Four-week-old immunodeficient NCG mice were engrafted with cord-blood-derived human CD34^+ hematopoietic stem and progenitor cells (French Blood Institute, Paris, France) 2 days after chemical myeloablative treatment. Fourteen weeks after cell injection, engraftment level was monitored with the analysis of human CD45^+ cells among total blood leukocytes by flow cytometry (Attune, Life Technologies/Thermo Fisher Scientific, Waltham, MA, USA). […]
All the animals used were monitored daily, checking their clinical signs of distress and body weight and tumors were measured three times a week using an electronic caliper. The tumor volume was determined by applying the formula Length×(Width)^2×0.5. […]

In another assay the test system is ENT1. Briefly: ENT1 expression (FIG. 28C). The format is cell-based, human. As to the method:
FIGS. 28A, 28B, and 28C show the results of an experiment whereby human tumors were dissociated, and cells were CFSE-labelled and stimulated with CD3/CD28 microbeads and IL-2 in the presence of 500 μM of ATP as a source of adenosine. FIGS. 28A and 28B show data of Compound 1-mediated rescue of CD8+ T cell proliferation and TNF, IFNγ, and granzyme B, respectively, from dissociated tumor cell suspension cultures. Symbols represent each donor, bars are group mean±s.d. One-way RM ANOVA with Tukey's multiple comparisons test.

In the case of `COc1cc(C(=O)O[C@@H]2CCCOc3cc(cc(OC)c3OC)C(=O)NCCCN3CCCN(CC2)CC3)cc(OC)c1OC` [Compound 1, (12R)-7^4,7^5-dimethoxy-6-oxo-8-oxa-5-aza-1(1,4)-diazepana-7(1,3)-benzenacyclotetradecaphane-12-yl 3,4,5-trimethoxybenzoate], the “Tumor volume compared with vehicle group” value with MDA-MB-231 cells is “not statistically significantly different”. Besides, the ENT1 expression entry in the assay with ENT1 was “suppresses”.
